Where a name gives a salt, the structure may show the parent alone.
Experiments:
Assay type in all cases: biochemical
steroid sulfatase (STS) = target: T1, steroid sulfatase (STS) (Homo sapiens, UniProt P08842); test: 3H-DHEA scintillation counting; details: labelled compound; 5 µM DHEAS, pH 7.4, 37 °C
T1 sequence (P08842 22-583): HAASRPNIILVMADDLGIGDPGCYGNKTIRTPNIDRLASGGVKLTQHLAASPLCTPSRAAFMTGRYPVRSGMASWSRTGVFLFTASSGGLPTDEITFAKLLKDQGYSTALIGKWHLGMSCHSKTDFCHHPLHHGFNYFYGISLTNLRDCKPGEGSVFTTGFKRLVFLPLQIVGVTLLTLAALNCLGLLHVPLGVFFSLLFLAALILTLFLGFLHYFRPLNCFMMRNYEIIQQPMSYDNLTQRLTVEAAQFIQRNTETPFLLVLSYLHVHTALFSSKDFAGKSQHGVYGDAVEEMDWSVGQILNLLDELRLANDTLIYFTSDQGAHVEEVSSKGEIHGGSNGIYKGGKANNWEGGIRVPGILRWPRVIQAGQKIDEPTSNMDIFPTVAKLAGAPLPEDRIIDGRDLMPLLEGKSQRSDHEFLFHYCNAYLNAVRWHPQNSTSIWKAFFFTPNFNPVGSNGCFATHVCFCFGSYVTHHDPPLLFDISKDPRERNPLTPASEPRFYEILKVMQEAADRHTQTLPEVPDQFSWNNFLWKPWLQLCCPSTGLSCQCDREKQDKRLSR

aryl sulfatase G (ARSG) = target: T2, aryl sulfatase G (ARSG) (Homo sapiens, UniProt Q96EG1); test: colorimetric assay, […] nm; details: 8 mM pNCS, 0.5 M NaOAc, pH 5.6, 37 °C
T2 sequence (Q96EG1 17-525): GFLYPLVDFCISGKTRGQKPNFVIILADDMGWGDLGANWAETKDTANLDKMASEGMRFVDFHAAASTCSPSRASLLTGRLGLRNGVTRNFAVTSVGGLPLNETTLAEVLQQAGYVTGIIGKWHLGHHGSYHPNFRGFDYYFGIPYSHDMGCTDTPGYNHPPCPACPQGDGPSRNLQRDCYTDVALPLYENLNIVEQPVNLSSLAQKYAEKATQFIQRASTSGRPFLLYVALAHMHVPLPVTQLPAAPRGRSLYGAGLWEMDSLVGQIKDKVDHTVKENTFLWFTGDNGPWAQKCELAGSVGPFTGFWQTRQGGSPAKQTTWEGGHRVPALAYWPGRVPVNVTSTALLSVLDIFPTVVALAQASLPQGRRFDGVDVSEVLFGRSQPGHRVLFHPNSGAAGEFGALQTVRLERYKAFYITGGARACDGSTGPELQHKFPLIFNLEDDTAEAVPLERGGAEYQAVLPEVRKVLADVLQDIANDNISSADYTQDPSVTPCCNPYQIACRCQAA

PARS = PARS (Pseudomonas aeruginosa, UniProt P51691); test: colorimetric assay, […] nm; details: 8 mM pNCS, pH 8.5, room temperature
Sequence of PARS (P51691 2-536): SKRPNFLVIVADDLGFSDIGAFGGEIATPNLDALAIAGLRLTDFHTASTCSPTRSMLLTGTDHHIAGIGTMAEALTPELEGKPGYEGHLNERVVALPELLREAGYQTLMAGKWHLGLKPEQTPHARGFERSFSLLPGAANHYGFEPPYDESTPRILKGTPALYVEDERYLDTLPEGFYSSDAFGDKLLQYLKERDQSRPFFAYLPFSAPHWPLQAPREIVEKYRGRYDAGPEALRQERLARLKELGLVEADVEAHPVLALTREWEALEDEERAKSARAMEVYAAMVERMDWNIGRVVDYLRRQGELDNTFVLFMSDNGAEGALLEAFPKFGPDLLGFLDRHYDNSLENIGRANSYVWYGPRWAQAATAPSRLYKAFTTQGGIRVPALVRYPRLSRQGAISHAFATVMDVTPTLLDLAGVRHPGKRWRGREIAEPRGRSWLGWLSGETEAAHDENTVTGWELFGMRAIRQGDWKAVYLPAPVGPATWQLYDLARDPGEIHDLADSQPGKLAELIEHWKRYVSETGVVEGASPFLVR

KARS = target: T3, KARS (Klebsiella pneumoniae, UniProt Q9X759); test: colorimetric assay, […] nm; details: 8 mM pNCS, pH 7.5, room temperature
T3 sequence (Q9X759 21-577): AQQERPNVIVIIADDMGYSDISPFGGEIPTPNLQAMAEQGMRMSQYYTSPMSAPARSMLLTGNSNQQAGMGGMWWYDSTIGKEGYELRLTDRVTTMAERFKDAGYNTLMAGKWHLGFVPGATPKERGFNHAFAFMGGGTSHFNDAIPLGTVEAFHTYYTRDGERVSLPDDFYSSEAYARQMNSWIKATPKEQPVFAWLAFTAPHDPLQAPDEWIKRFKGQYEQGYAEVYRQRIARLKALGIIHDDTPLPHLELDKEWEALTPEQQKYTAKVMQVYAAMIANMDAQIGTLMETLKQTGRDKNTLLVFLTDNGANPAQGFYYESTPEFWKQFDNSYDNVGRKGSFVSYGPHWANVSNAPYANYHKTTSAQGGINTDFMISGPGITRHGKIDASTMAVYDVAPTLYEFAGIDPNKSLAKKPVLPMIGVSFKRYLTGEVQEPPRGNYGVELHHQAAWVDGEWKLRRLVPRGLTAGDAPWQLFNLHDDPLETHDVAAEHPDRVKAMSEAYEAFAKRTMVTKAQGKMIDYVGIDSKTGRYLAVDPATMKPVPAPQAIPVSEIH

Row | SMILES | 3H-DHEA scintillation counting (steroid sulfatase (STS)) | colorimetric assay, 515 nm (aryl sulfatase G (ARSG)) | colorimetric assay, 515 nm (PARS) | colorimetric assay, 515 nm (KARS)
1 | C[C@]12CC[C@H](OS(=O)(=O)O)CC1=CC[C@@H]1[C@@H]2CC[C@]2(C)C(=O)CC[C@@H]12 [dehydroepiandrosterone-3-sulfate] | STS activity was determined using a radioactive dehydroepiandrosterone-3-sulfate (^3DHEAS) assay |  |  | 
2 | O=[N+]([O-])c1ccc(O)c(OS(=O)(=O)O)c1 [para-nitrocatechol sulfate] |  | KARS, PARS and ARSG activities were monitored using a para-nitrocatechol sulfate (pNCS) colorimetric assay | KARS, PARS and ARSG activities were monitored using a para-nitrocatechol sulfate (pNCS) colorimetric assay | KARS, PARS and ARSG activities were monitored using a para-nitrocatechol sulfate (pNCS) colorimetric assay

— paper PMC3396293 (Bioorganic & medicinal chemistry, 2011)
